3 molecules from patent US8883169B2, “Immunogen platform” (Chrontech Pharma AB, priority 2007, dated 2014) can be followed below.

Data set [1] concerns NS3/4A-expressing EL-4 lymphoma cells. As to the kind of experiment: In vivo inhibition of growth of NS3/4A-expressing EL-4 tumor cells. The conditions noted are these: C57BL/6 mice immunized only once. Here is the method:
To confirm that inhibition of tumor growth using the NS3/4A-expressing EL-4 cell line is fully dependent on an NS3/4A-specific immune response a control experiment was performed. […] Two weeks after the last immunization the mice were challenged with an s.c. injection of 10^6 native EL-4 or NS3/4A-expressing EL-4 cells (NS3/4A-EL-4). An NS3/4A-specific immune response was required for protection, since only the immunized mice were protected against growth of the NS3/4A-EL-4 cell line (FIG. 10A). Thus, this H-2^b-restricted model behaves similarly to the SP2/0 H-2^d restricted model.
As set forth herein, the NS3/4A gene can be used as a vaccine. Although it had been determined that NS3/4A quickly primed in vivo functional CTLs, the effect of therapeutic immunization after the injection of tumor cells was analyzed next. Groups of ten C57BL/6 mice were challenged with 10^6 NS3/4A-EL-4 tumor cells. […]
In vivo challenge of immunized mice with the NS3/4A-expressing SP2/0 myeloma or EL-4 lymphoma cell line was performed according to the method described by Encke et al., supra. […] The kinetics of the tumor growth was determined by measuring the tumor size through the skin at days six to 20. […]
To test the therapeutic effect of the vaccines groups of mice were inoculated with the tumor cells as described above. […] The tumor growth was monitored from day 6 to day 20.

The subject of data set [2] is NS3-specific IgG1 and IgG2a antibodies. As to the kind of experiment: EIA of NS3-specific IgG subclasses (IgG1, IgG2a). It counts as in vivo, mice. As to conditions: 10 μg rNS3 with 0.1 or 1.0 mg ribavirin i.p. at weeks 0 and 4, bled at week six.
Data set [3] relates to antibodies to rNS3. In words: EIA of antibodies to rNS3 after immunization with rNS3 with or without ribavirin. It counts as in vivo, Balb/c mice. As for the experimental part: In a first set of experiments, groups of three to five Balb/c mice (BK Universal, Uppsala, Sweden) were immunized i.p or s.c. (e.g., at the base of the tail) with 10 μg or 100 μg of recombinant hepatitis C virus non-structural 3 (rNS3) protein. […] Mice were injected with a total volume of […] per injection.
At two and four weeks following i.p. immunization, all mice were bled by retro-orbital sampling. Serum samples were collected and analyzed for the presence of antibodies to rNS3. To determine the antibody titer, an enzyme immunoassay (EIA) was performed. (See e.g., Hultgren et al., J Gen Virol. 79:2381-91 (1998) and Hultgren et al., Clin. Diagn. Lab. Immunol. 4:630-632 (1997)). The antibody levels were recorded as the highest serum dilution giving an optical density at 405 nm more than twice that of non-immunized mice.
At four, six and eight weeks the mice were bled and serum was separated and frozen. After completion of the study, sera were tested for the levels of antibodies to recombinant NS3, as described above. Mean antibody levels to rNS3 were compared between the groups using Student's t-test (parametric analysis) or Mann-Whitney (non-parametric analysis) and the software package StatView 4.5 (Abacus Concepts, Berkeley, Calif.). […] The values given represent end point titres to recombinant rNS3.
The levels of antibody to the antigen were then determined by EIA.
A second set of experiments was also performed. […] The mice were bled at week six and rNS3-specific IgG levels were determined by EIA as described previously.

Data set [4] deals with CD4+ T cells of lymph nodes. As to the kind of experiment: In vitro recall assay, CD4+ T cell proliferation by [3H]thymidine incorporation. It counts as cell-based, mice. As to conditions: 100 μg rNS3 mixed with 1 mg ribavirin s.c.; ten days post-immunization; 96 h of culture. As for the experimental part:
This assay can be used with any ribavirin derivative or combinations of ribavirin derivatives to determine the extent that a particular vaccine formulation modulates a cellular immune response. […] The mice were sacrificed ten days post-immunization and their lymph nodes were harvested and drained. In vitro recall assays were then performed. (See e.g., Hultgren et al., J Gen Virol. 79:2381-91 (1998) and Hultgren et al., Clin. Diagn. Lab. Immunol. 4:630-632 (1997)). The amount of CD4^+ T cell proliferation was determined at 96 h of culture by the incorporation of [^3H]thymidine.

Data set [5] has as its system antibodies to HBsAg. As to the kind of experiment: EIA of antibody titer to HBsAg after Engerix vaccine with or without ribavirin. It counts as in vivo, mice. The conditions noted are these: 1 mg ribavirin, i.p., booster on week four, bled on week six. From the text:
(Engerix, SKB). […] A booster containing the same mixture was given on week four and all mice were bled on week six.

Data set [6] relates to NS3 and birch specific T cells. In words: ELISpot assay of γ-IFN-secreting CTLs and T helper cells (NS3 and birch specific). It counts as cell-based, C57/BL6 mice. The conditions noted are these: immunized twice, 4 weeks apart; two weeks after the second injection. Here is the method: (§1) Groups of C57/BL6 mice were immunized twice with 50 μg of either plasmid containing a codon optimized NS3/4A gene, a NS3/4A-Betv1 fusion gene containing a protease cleavage site between NS3 and NS4A as well as a protease cleavage site between the NS4A and the birch antigen (SEQ ID NO: 1380), or a NS3/4A-Betv1 fusion gene containing a protease cleavage site between NS3 and NS4A, a protease cleavage site between the NS4A and the birch antigen as well as two additional protease cleavage sites within the birch antigen (SEQ ID NO: 1381) using an electroporation device. Another group of mice were immunized twice with recombinant Betv1 protein (rBetv1) in Freunds incomplete adjuvant. The two immunizations were 4 weeks apart. The mice were sacrificed two weeks after the second immunizations and the lymph nodes and spleens of each group were collected and analyzed.
The presence of γ-IFN-secreting CTLs and T helper (Th) cells to antigens in splenocyte or lymph node cultures were evaluated using a commercially available ELISpot assay. […] The ability of NS3-specific and birch-specific Th and CTLs to produce γ-IFN recalled by a concanavalin-A (con-A) as a positive control, media alone as a negative control, native HBcAg, recombinant HBcAg (rHBcAg), various concentrations of NS3/4A CTL peptide, various concentrations of rNS3, and various concentrations of rBetv1 was analyzed via the ELISpot.

Data set [7] concerns IgE to Betv1. In words: ELISA of IgE antibodies on recombinant birch protein. The format is in vivo, C57/BL6 mice. As to conditions: immunized twice, bled two weeks after the second immunization. Here is the method:
as §1, with “bled” for “sacrificed”, “immunizations.” for “immunizations and the lymph nodes and spleens of each group were collected and analyzed.”
Dilutions of the sera were tested on ELISA plates coated with recombinant birch protein. A secondary antibody specific for IgE antibodies was used to detect bound antibody. […] The DNA constructs are thus not allergenic in that they prime a Th1 type response.

For the molecule “GAVQNEVTL (Artificial Peptide, NS3/4A H-2D Binding Peptide) [NS3-derived CTL peptide]”, in data set [1], the “protection against growth of NS3/4A-EL-4 tumors after a single immunization” value is “not protected”.
For `NC(=O)c1ncn([C@@H]2O[C@H](CO)[C@@H](O)[C@H]2O)n1` [ribavirin, 1-β-D-ribofuranosyl-1,2,4-triazole-3-carboxamide], the “effect on the IgG subclass response in the NS3-specific immune response” value in data set [2] is given as “does not change the IgG subclass response”. Also, in data set [3] (20 μg rNS3, weeks 1 and 3), the “effect on antibody levels, higher doses (1-10 mg) of ribavirin” value was “enhance antibody levels at week three” and the “effect on antibody levels, low doses (<1 mg) of ribavirin” value is recorded as “enhance antibody levels at week one but not at week three”. In addition, in data set [3] (1 mg of ribavirin and either 10 μg or 100 μg of rNS3, two weeks post-immunization), the “antibody titer compared to formulations composed of only rNS3” value is “significantly greater antibody titer”. The “immune response compared to that elicited without ribavirin” value in data set [3] (approximately 1 to 3 mg doses of ribavirin) is “more than 12 times”. The “T cell proliferative response compared to 100 μg rNS3 in PBS” value in data set [4] was “much greater T cell proliferative response”. The “response to Engerix vaccine (HBsAg and alum)” value in data set [5] is given as “enhanced the response to 2 μg of an existing vaccine”.

B1: rBetv1: recombinant Betv1 protein (major Birch allergen) in Freunds incomplete adjuvant (protein, UniProt P15494 2-160, looked up)
Major pollen allergen Bet v …: GVFNYETETTSVIPAARLFKAFILDGDNLFPKVAPQAISSVENIEGNGGPGTIKKISFPEGFPFKYVKDRVDEVDHTNFKYNYSVIEGGPIGDTLEKISNEIKIVATPDGGSILKISNKYHTKGDHEVKAEQVKASKEMGETLLRAVESYLLAHSDAYN
modifications: in Freund's incomplete adjuvant
Consider B1, for which the “priming of IFN-γ producing Betv1-specific T cells” value in data set [6] is on record as “fails to do”. Further, the “priming of IgE to Betv1” value in data set [7] is reported as “shows birch-specific IgE antibodies”.
